Assay results taken from patent US20020107197A1, “Ligands for G protein coupled receptors and methods of using them” (priority 2000, published 2002).

Tests used:
[1] = molecular target: T1, GPR4 (Homo sapiens, UniProt P46093); assay: Radioligand binding to homogenates of GPR4-transfected CHO cells; settings: cold competitors, GPR4-transfected CHO cell homogenates
T1 construct: were used to generate full length GPR4, which was digested with EcoRI and Xba I and cloned into the pBs3HA vector; expressed in transfected cells
T1 sequence (P46093 whole entry): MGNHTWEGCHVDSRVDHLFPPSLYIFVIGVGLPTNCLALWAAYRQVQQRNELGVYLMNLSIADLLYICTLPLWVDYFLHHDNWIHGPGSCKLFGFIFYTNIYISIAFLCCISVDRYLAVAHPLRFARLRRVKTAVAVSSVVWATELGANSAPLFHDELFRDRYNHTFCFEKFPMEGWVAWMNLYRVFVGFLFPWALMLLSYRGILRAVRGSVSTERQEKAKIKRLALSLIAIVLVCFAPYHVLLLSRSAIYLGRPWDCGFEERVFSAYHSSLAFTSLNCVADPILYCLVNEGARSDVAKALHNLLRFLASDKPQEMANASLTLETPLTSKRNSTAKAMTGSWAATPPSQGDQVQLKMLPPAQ
Protocol: (§1) To characterize the binding of SPC and LPC to GPR4 and TDAG8, we conducted radioligand binding assays. CHO cells were chosen for GPR4 binding assays, since HEK293 cells express relatively high levels of endogenous GPR4. CHO cells stably transfected with empty vector or GPR4 were serum starved for 20 h, then collected after exposure to 2 mM EDTA in PBS. The pelleted cells were stored at −80° C. until use. Binding assays were performed essentially as described previously (Xu et al. (2000) Nat Cell Biol 2, 261-267), except binding was performed at 4° C. Briefly, frozen cells (10^6 cells/ml) were homogenized in a binding buffer. Assays were performed in 96-well plates in triplicate with 100 μl cell homogenate (equivalent to 10^5 cells/well). Different amounts of [^3H]SPC or [^3H]16:0-LPC were added to the cell homogenates in 50 μl of binding buffer, in the presence or absence of cold SPC or 16:0-LPC, or other competitors. The plates were incubated at 4° C. for 120 min, unless otherwise indicated. Cell-bound [^3H]SPC or [^3H]LPC was collected onto a filter (Printed Filtermat A, Wallac, Gaithersburg, Md.) using an automated cell harvester (HARVESTER 96, Tomtec, Orange, Conn.). Specific binding was calculated by subtraction of nonspecific binding (binding detected in the presence of 100-fold excess unlabeled SPC or 16:0-LPC) from the total binding.
Cell homogenates were used for binding assays. Binding was conducted at 4° C. for 120 min or as indicated. [^3H]SPC and [^3H]16:0-LPC specifically bound to cell homogenates from GPR4-transfected CHO cells in a time-dependent manner and reached equilibrium after 60 min incubation at 4° C. […] The maximum binding capacities for SPC and 16:0-LPC were 996 fmole/10^5 cells for SPC and 1,528 fmole/10^5 cells for 16:0-LPC. […] Binding assays using [^3H]18:0-LPC gave similar results. We also tested the four glycosphingolipids, Psy, Glu-Sph, Gal-Cer, and Lac-Cer, for their ability to compete for the binding of [^3H]SPC and [^3H]16:0-LPC to GPR4.

[2] = molecular target: T1, GPR4; assay: Single-cell intracellular calcium assay (fura-2) in GPR4-GFP-transfected MCF10A cells; format: cell-based; settings: for effect of PAF receptor antagonist on calcium response to LPC or SPC: BN52021 200 μM, WEB-2086 2 μM, WEB-2170 2 μM; for increase in [Ca2+]i in GPR4- vs vector-transfected/parental MCF10A cells: lipid at 1 μM
Protocol: (§2) Measurement of [Ca^2+]i, was performed as described previously in Xu et al. (2000) Nat Cell Biol 2, 261-267. Briefly, pGPR4-GFP-transfected MCF10A cells were grown in specialized glass-bottom dishes (Bioptech, Inc., Butler, Pa.) and loaded with fura-2 in HEPES buffered saline. Using a dual-wavelength spectrofluorometer (RFK-6002, Photon Technology Int'l, So. Brunswick, N.J.) coupled to an inverted fluorescence microscope (Olympus, IX-70, Lake Success, N.Y.), GFP-positive cells were identified using an excitation wavelength of 488 nm, a dichroic 505 nm long-pass filter and an emitter filter at bandpass of 535 nm (Chroma Technology, Brattleboro, Vt.). Measurements of [Ca^2+]i were performed on individual GPR4-GFP positive cells at excitation wavelengths of 340 and 380 nm and an emission wavelength of 510 nm. Conversion of the 340/380 ratio value into [Ca^2+]i in nM was estimated by comparing the cellular fluorescence ratio with ratios acquired using fura-2 (free acid) in buffers containing known Ca^2+ concentrations. [Ca^2+]i was then calculated as described by Grynkiewicz et al. (1985) J Biol Chem 260, 3440-3450. All calcium assays were performed in the presence of 1 mM EGTA in the assay buffers. Therefore, intracellular calcium release, not calcium influx, was analyzed.
To test whether GPR4 is a receptor for SPC, MCF10A cells were transiently transfected with pGPR4-GFP.
The GFP receptor fusion was used to identify positively transfected cells, and single-cell calcium assays were performed as described in our previous studies, such as Xu et al. (2000) Nat Cell Biol 2, 261-267.

[3] = molecular target: T1, GPR4; assay: Internalization of GPR4-GFP in HEK293 cells (confocal microscopy); format: cell-based
Protocol: pGPR4-GFP stably expressing HEK293 cells were cultured in 6 cm tissue culture dishes in RPMI1640 with 10% FBS. After 16-24 h serum starvation, cells were treated with different lipids at 37° C. for 2 h. Cells were washed with cold PBS and fixed with 4% paraformaldehyde in PBS. The subcellular localization of GPR4-GFP protein was visualized under a Leica TV confocal fluorescence microscope with a 63× oil immersion lens (Wetzler, Heidelberg, Germany). The excitation and emission wavelengths were 488 nm and 515-540 nm, respectively.
G protein coupled receptors undergo agonist-dependent desensitization and internalization. When HEK293 cells are transfected with the pEGFP-N1 vector, GFP protein is expressed in the cytosol of the cells. The GPR4-GFP and TDAG8-GFP fusion proteins, on the other hand, was expressed only on the plasma membrane.

[4] = molecular target: T2, endogenous PAF receptor (Homo sapiens, UniProt P25105); assay: Calcium assay of the endogenous PAF receptor in MCF10A cells; format: cell-based; settings: BN52021 200 μM, WEB-2086 2 μM, WEB-2170 2 μM
T2 construct: endogenous in cells; host or cells: MCF10A (parental and GPR4-GFP-transfected)
T2 sequence (P25105 whole entry): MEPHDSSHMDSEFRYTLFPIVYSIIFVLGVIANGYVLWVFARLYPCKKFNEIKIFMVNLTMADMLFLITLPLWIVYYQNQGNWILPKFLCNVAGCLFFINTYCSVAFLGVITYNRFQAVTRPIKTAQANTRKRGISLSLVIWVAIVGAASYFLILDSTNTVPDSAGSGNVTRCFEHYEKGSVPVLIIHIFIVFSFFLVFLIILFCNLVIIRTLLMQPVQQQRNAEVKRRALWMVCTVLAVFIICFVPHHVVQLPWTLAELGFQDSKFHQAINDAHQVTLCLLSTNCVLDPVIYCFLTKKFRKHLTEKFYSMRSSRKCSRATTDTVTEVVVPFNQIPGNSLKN
Protocol: as §2
Therefore, it is unlikely that the increase in calcium induced by LPC was mediated by a PAF receptor.

[5] = molecular target: T1, GPR4; assay: ERK MAP kinase activation (phospho-ERK Western blot) in GPR4-infected Swiss 3T3 cells; format: cell-based; settings: GPR4-ires-GFP vs GFP Swiss 3T3 cells; SPC and LPC 100 nM
Protocol: MAP kinases are key signaling intermediates of DNA synthesis and cell proliferation. Swiss 3T3 cells were infected with MSCV GPR4-ires-GFP or MSCV ires-GFP, and subsequently cells sorted by FACS for positive expression of GFP as described previously (Kabarowski et al. (2000) Proc Natl Acad Sci USA. 97, 12109-12114). Cells were plated in 6-well plates in DMEM containing 5% FBS, serum-starved overnight, and then treated lipids in DMEM for the indicated times. Cells were lysed on ice in RIPA buffer containing 50 mM Tris-HCl, pH 7.5, 1% Nonidet P-40, 0.5% deoxycholate,0.1% SDS, 150 mM NaCl, 2 mM EGTA, 25 mM sodium fluoride, 1 mM sodium orthovanadate, and 1× protease inhibitors (Sigma P8340). Lysates containing equal amounts of protein were separated on 10% SDS-polyacrylamide gels and transferred onto nitrocellulose membranes. Antibodies against phosphorylated ERK1/2 (Cell Signaling Technologies; Beverly, Mass.) were used to probe the membrane and the ECL system (Amersham) was used for detection. To normalize the amounts of protein loaded in each lane, membranes were stripped and re-probed with antibodies against total ERK (Cell Signaling Technologies). In some experiments, cells were pretreated with 100 ng/ml PTX for 12-16 h prior to SPC and LPC stimulation.

[6] = molecular target: T3, TDAG8 (Homo sapiens, UniProt Q8IYL9); assay: TDAG8 receptor internalization; format: cell-based
T3 construct: expressed in transfected cells
T3 sequence (Q8IYL9 whole entry): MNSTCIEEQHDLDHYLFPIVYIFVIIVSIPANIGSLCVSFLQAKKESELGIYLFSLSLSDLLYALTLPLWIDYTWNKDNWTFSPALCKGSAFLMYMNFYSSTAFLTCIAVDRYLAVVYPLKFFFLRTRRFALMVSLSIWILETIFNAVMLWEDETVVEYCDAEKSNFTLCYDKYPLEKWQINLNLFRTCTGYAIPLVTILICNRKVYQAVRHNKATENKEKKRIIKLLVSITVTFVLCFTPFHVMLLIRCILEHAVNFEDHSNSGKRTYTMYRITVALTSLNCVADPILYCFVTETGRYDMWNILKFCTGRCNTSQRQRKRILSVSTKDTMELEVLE
From the text: G protein coupled receptors undergo agonist-dependent desensitization and internalization.

[7] = molecular target: T1, GPR4; assay: SRE luciferase reporter in GPR4-transfected HEK293 cells; format: cell-based; settings: GPR4 cotransfection
Protocol: The serum-response element (SRE) reporter system is a sensitive assay for receptors of lipid factors (An et al. (1998) J Biol Chem 273, 7906-7910; An et al. (1999) Mol Pharmacol 55, 787-794). The SRE reporter system used herein (pSRE-Luc) was a gift from Dr. Songzhu An (UCSF), or may be purchased from Stratagene (La Jolla, Calif.). Both systems give identical results. HEK293 and HEK293GPR4 cells were cultured in RPMI1640 with 10% FBS in 10 cm dishes to ˜85% confluence. To the cells in each dish, pSRE-Luc (10 μg) was transfected in the presence of 60 μl LipofectAMINE reagent. Cells were seeded in 96-well plates 16 h after transfection, incubated for another 24 h in RPMI1640 with 10% FBS, and starved in serum-free medium for 16 h. SPC (dissolved in PBS to 10 mM) and other lipids (LPCs were dissolved in 70% ethanol. Other lipids were dissolved in PBS, 70-95% ethanol, or 100% MeOH) were diluted in serum free RPMI 1640 and added to the cells, followed by a 10 h incubation. Luciferase activity was measured in Microlite™ 1 plates (DYNEX Technologies, Inc., Virginia) using 60 μl of cell lysate and 20 μl luciferase substrate. PTX (100 ng/ml) was added during the 16 h serum starvation period and pcDNA1-C3 (encoding the C3-exoenzyme, 2 μg) was co-transfected with pSRE-Luc (10 μg). All experiments were performed in quadruplicate and were repeated at least three times. The Student's t test was performed using the GraphPad Instat software (San Diego, Calif.). p<0.05 was considered to be statistically significant.

[8] = molecular target: T3, TDAG8; assay: Binding of phospholipids to TDAG8
Protocol: as §1
Using functional and binding assays, we have identified the ligands for TDAG8.

GPR4-dependent ERK activation (in words) [5] | Compound | competition for binding of [3H]SPC and [3H]16:0-LPC to GPR4 [1] | increase in [Ca2+]i in GPR4- vs vector-transfected/parental MCF10A cells [2] | further results
 | CCCCCCCCCCCCCCCCCC(=O)OC[C@@H](O)COP(=O)([O-])OCC[N+](C)(C)C [18:0-LPC] | successfully competed for binding |  | 
 | CC1C(=O)OC2C(O)C34C5CC(C(C)(C)C)C36C(OC(=O)C6O)OC4(C(=O)O5)C12O (centres unmarked) [BN52021] |  |  | effect of PAF receptor antagonist on calcium response to LPC or SPC [2]: not affected; effect of PAF receptor antagonist on GPR4 internalization induced by SPC or 16:0-LPC [3]: did not block; effect on calcium signal induced by PAF (100 nM) [4]: completely abolished
 | CCCCCCCCCCCCC/C=C/[C@@H](O)[C@@H](N)COP(=O)([O-])OCC[N+](C)(C)C [D-erythro-SPC] |  | stereoselectivity of GPR4 favoring D-erythro-SPC | 
not | CCCCCCCCCCCCC/C=C/[C@@H](O)[C@@H](N)CO[C@@H]1O[C@H](CO)[C@@H](O)[C@H](O)[C@H]1O [Glu-Sph, glucosyl-β1′1-sphingosine] | None of these glycosphingolipids competed successfully | did not stimulate increases in [Ca^2+]i | 
 | CCCCCCCCCCCCC/C=C/[C@@H](O)[C@@H](N)COP(=O)([O-])OCC[N+](C)(C)C [L-threo-SPC] |  | favoring D-erythro-SPC (the bioactive form of SPC) vs. L-threo-SPC | 
not | CCCCCCCCCCCCC/C=C/[C@@H](O)[C@@H](N)CO[C@@H]1O[C@H](CO)[C@H](O)[C@H](O)[C@H]1O [Psy, psychosine] | None of these glycosphingolipids competed successfully | did not stimulate increases in [Ca^2+]i | 
 | Cc1nnc2n1-c1sc(CCC(=O)N3CCOCC3)cc1C(c1ccccc1Cl)=NC2 [WEB-2086] |  |  | effect of PAF receptor antagonist on calcium response to LPC or SPC [2]: not affected; effect of PAF receptor antagonist on GPR4 internalization induced by SPC or 16:0-LPC [3]: did not affect; effect on calcium signal induced by PAF (100 nM) [4]: completely abolished
 | Cc1nnc2n1-c1sc3c(c1C(c1ccccc1Cl)=NC2)CC(C(=O)N1CCOCC1)C3 (centres unmarked) [WEB-2170] |  |  | effect of PAF receptor antagonist on calcium response to LPC or SPC [2]: did not affect; effect of PAF receptor antagonist on calcium response to LPC or SPC ([2]; listed as WEB-2071): insensitive; effect of PAF receptor antagonist on GPR4 internalization induced by SPC or 16:0-LPC [3]: did not affect; effect on calcium signal induced by PAF (100 nM) [4]: completely blocked
 | CCCCCCCCCCCCCCCCOC[C@@H](O)COP(=O)([O-])OCC[N+](C)(C)C [lyso-PAF] | not |  | TDAG8 receptor internalization [6]: induced TDAG8 receptor internalization; transcriptional activation of SRE (in words) [7]: none of them induced significant transcriptional activation of SRE; binding to TDAG8 [8]: able to bind to TDAG8
 | Sphingomyelin [SM (18:0)] | not |  | transcriptional activation of SRE (in words) [7]: none of them induced significant transcriptional activation of SRE
not | galactosyl-β1′1-ceramide [Gal-Cer] | None of these glycosphingolipids competed successfully | induced the same level of increased [Ca^2+]i | 
 | lysophosphatidylinositol [LPI(18:0)] | not |  | 

Compound | GPR4-dependent ERK activation (in words) [5] | competition for binding of [3H]SPC and [3H]16:0-LPC to GPR4 [1] | increase in [Ca2+]i in GPR4- vs vector-transfected/parental MCF10A cells [2] | further results
lactosyl-β1′1-ceramide [Lac-Cer] | activation was independent of GPR4 expression | None of these glycosphingolipids competed successfully | did not stimulate increases in [Ca^2+]i | 
